From patent US20250346593A1, “IMIDAZO(1,2-1)PYRIDINE DERIVATIVES AS RIPK2 INHIBITORS” (Interline Therapeutics, Inc., priority 2022, published 2025)
Where two headings read alike, the source gives them in different places.

Key:
[1] = molecular target: GST-RIPK2 fusion protein (human RIPK2 amino acids 1-310) (Homo sapiens (Human), UniProt O43353); experiment: RIPK2 binding competition assay (TR-FRET, Tracer 199)
[2] = system: NF-κB pathway (SEAP) in THP1-Dual cells; experiment: THP-1 Dual cell SEAP assay (L18-MDP stimulated); type: cell-based; conditions: read-out: NFkB THP1 IC50
[3] = read-out: RIPK2 IC50, RIPK2 binding competition assay

GST-RIPK2 fusion protein (human RIPK2 amino acids 1-310), sequence (O43353 1-310): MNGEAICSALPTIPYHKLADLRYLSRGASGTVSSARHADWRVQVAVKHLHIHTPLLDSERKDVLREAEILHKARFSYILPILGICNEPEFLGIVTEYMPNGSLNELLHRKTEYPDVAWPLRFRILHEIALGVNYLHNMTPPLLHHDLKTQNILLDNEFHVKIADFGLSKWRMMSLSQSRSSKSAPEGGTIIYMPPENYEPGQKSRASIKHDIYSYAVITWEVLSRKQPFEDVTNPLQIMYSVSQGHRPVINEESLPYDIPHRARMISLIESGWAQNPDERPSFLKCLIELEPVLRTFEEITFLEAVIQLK

Row | SMILES | IC50 [1] [nM] | IC50 ([2]; Homo sapiens, THP1-Dual) [nM] | IC50 [1, 3] [nM] | IC50 [2] [nM]
1 | COc1cc2ncc(-c3cc(F)c(OC)c(NCCN)c3)n2cc1S(=O)(=O)C(C)(C)C [Example 329, N1-(5-(6-(tert-butylsulfonyl)-7-methoxyimidazo[1,2-a]pyridin-3-yl)-3-fluoro-2-methoxyphenyl) ethane-1,2-diamine] | 2.5 to 20 | 250 to 1000 | – | –
2 | CC(C)(C)S(=O)(=O)c1ccc2ncc(-c3cc(N)nc(F)c3)n2c1 [Example 330, 4-(6-(tert-butylsulfonyl)imidazo[1,2-a]pyridin-3-yl)-6-fluoropyridin-2-amine] | 2.5 to 20 | 250 to 1000 | – | –
3 | CCc1ccc(-c2cnc3cc(OC)c(S(=O)(=O)C(C)(C)C)cn23)nc1N [Example 331, 6-(6-(tert-butylsulfonyl)-7-methoxyimidazo[1,2-a]pyridin-3-yl)-3-ethylpyridin-2-amine] | – | > 1000 | > 20 | –
4 | COc1cc2ncc(-c3ccc(C)c(N)n3)n2cc1S(=O)(=O)C(C)(C)C [Example 332, 6-(6-(tert-butylsulfonyl)-7-methoxyimidazo[1,2-a]pyridin-3-yl)-3-methylpyridin-2-amine] | – | > 1000 | > 20 | –
5 | COc1cc2ncc(-c3cc(N)c(C#N)c(F)c3)n2cc1S(=O)(=O)C(C)(C)C [Example 333, 2-amino-4-(6-(tert-butylsulfonyl)-7-methoxyimidazo[1,2-a]pyridin-3-yl)-6-fluorobenzonitrile] | 2.5 to 20 | 250 to 1000 | – | –
6 | COc1cc2ncc(-c3ccc(OC(F)(F)F)c(N)n3)n2cc1S(=O)(=O)C(C)(C)C [Example 334, 6-(6-(tert-butylsulfonyl)-7-methoxyimidazo[1,2-a]pyridin-3-yl)-3-(trifluoromethoxy)pyridin-2-amine] | – | > 1000 | > 20 | –
7 | COc1cc2ncc(-c3cc(C)c(OC)c(N)n3)n2cc1S(=O)(=O)C(C)(C)C [Example 335, 6-(6-(tert-butylsulfonyl)-7-methoxyimidazo[1,2-a]pyridin-3-yl)-3-methoxy-4-methylpyridin-2-amine] | > 20 | > 1000 | – | –
8 | COc1cc2ncc(-c3ccc(OC)c(N)n3)n2cc1S(=O)(=O)C(C)(C)C [Example 336, 6-(6-(tert-butylsulfonyl)-7-methoxyimidazo[1,2-a]pyridin-3-yl)-3-methoxypyridin-2-amine] | – | > 1000 | > 20 | –
9 | COc1cc2ncc(-c3cc(F)c(OC)c(C(C)(C)O)c3)n2cc1S(=O)(=O)C(C)(C)C [Example 337, 2-(5-(6-(tert-butylsulfonyl)-7-methoxyimidazo[1,2-a]pyridin-3-yl)-3-fluoro-2-methoxyphenyl)propan-2-ol] | 1 to 2.5 | 250 to 1000 | – | –
10 | COc1cc2ncc(-c3cc(F)c(OC)c(OCCO)c3)n2cc1S(=O)(=O)C(C)(C)C [Example 338, 2-(5-(6-(tert-butylsulfonyl)-7-methoxyimidazo[1,2-a]pyridin-3-yl)-3-fluoro-2-methoxyphenoxy)ethan-1-ol] | 2.5 to 20 | > 1000 | – | –
11 | COc1cc2ncc(-c3cc(F)c(OC)c(C4CC4)c3)n2cc1S(=O)(=O)C(C)(C)C [Example 340] | 1 to 2.5 | 50 to 250 | – | –
12 | CCCS(=O)(=O)Nc1nc(-c2cnc3cc(OC)c(S(=O)(=O)C(C)(C)C)cn23)ccc1OC [compound 314, N-(6-(6-(tert-butylsulfonyl)-7-methoxyimidazo[1,2-a]pyridin-3-yl)-3-methoxypyridin-2-yl)propane-1-sulfonamide] | – | > 1000 | > 20 | –
13 | COc1cc2ncc(-c3cc(F)nc(NCCS(C)(=N)=O)c3)n2cc1S(=O)(=O)C(C)(C)C (stereo not drawn) [compound 316] | – | – | 2.5 to 20 | 250 to 1000
14 | COc1cc(NCCCO)cc(-c2cnc3cc(OC)c(S(=O)(=O)C(C)(C)C)cn23)n1 [compound 321, 3-((2-(6-(tert-butylsulfonyl)-7-methoxyimidazo[1,2-a]pyridin-3-yl)-6-methoxypyridin-4-yl)amino)propan-1-ol] | – | > 1000 | > 20 | –
15 | COc1cc2ncc(-c3cc(F)c(OC)c(OCCCO)c3)n2cc1S(=O)(=O)C(C)(C)C [compound 339, 3-(5-(6-(tert-butylsulfonyl)-7-methoxyimidazo[1,2-a]pyridin-3-yl)-3-fluoro-2-methoxyphenoxy) propan-1-ol] | 2.5 to 20 | > 1000 | – | –
